In this experiment the target is recombinant human AMCase (Homo sapiens, UniProt Q9BZP6). Nature of the experiment: Human AMCase Activity Assay. Format: biochemical. Conditions: recombinant hAMCase, 4-methylumbelliferyl chitobioside substrate, citrate buffer pH 5.2, 37° C., 60 minutes; read-out: Activity (IC50 value key). A digest of the protocol:
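Recombinant human enzyme with fluorogenic 4-methylumbelliferyl β-D-N,N′-diacetylchitobioside substrate in citrate buffer, pH 5.2, 60 min at 37 °C in the dark with shaking. Read-out is 4MU fluorescence at 460 nm.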

Structures can show the parent of a compound that is named as a salt.

Chain of recombinant human AMCase (Q9BZP6 22-476): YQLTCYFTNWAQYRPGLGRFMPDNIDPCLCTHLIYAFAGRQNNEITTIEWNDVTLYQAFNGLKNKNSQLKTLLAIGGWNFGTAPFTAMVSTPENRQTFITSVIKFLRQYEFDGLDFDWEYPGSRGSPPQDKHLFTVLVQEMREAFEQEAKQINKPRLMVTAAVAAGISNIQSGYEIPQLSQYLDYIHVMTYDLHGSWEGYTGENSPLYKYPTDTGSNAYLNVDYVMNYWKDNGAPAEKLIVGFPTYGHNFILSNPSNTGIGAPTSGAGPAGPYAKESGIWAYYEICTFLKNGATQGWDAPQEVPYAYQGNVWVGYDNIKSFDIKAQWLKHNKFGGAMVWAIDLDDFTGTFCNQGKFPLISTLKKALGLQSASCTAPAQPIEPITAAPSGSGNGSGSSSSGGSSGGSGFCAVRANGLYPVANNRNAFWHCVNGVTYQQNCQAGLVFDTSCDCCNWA

As usually defined, the IC50 is the midpoint of a concentration-inhibition curve. Turning to `CN(CCc1ccccc1OC(F)(F)F)C1CCN(c2nc(N)n[nH]2)CC1` [Example 174, 1-(3-amino-1H-1,2,4-triazol-5-yl)-N-methyl-N-(2-(trifluoromethoxy)phenethyl)piperidin-4-amine], the IC50 lay in the range of 10 to 100 µM.
Turning to `CN(CCc1ccc(Cl)c(Cl)c1)C1CCN(c2nc(N)n[nH]2)CC1` [Example 176, 1-(3-amino-1H-1,2,4-triazol-5-yl)-N-(3,4-dichlorophenethyl)-N-methylpiperidin-4-amine], the IC50 was 1 to 10 µM.
In the case of `COc1cccc(CCN(C)C2CCN(c3nc(N)n[nH]3)CC2)c1OC` [Example 177, 1-(3-amino-1H-1,2,4-triazol-5-yl)-N-(2,3-dimethoxyphenethyl)-N-methylpiperidin-4-amine], the IC50 was 10 to 100 µM.
With `CN(C)c1ccc(CCN(C)C2CCN(c3nc(N)n[nH]3)CC2)cc1` [Example 178, 1-(3-amino-1H-1,2,4-triazol-5-yl)-N-(4-(dimethylamino)phenethyl)-N-methylpiperidin-4-amine], the 50% inhibitory concentration (IC50) lay in the range of 10 to 100 µM.
Take `Cc1ccccc1CCN(C)C1CCN(c2nc(N)n[nH]2)CC1` [Example 179, 1-(3-amino-1H-1,2,4-triazol-5-yl)-N-methyl-N-(2-methylphenethyl)piperidin-4-amine]: the IC50 lay in the range of 10 to 100 µM.
As to `CN(CCc1cccc(C(F)(F)F)c1)C1CCN(c2nc(N)n[nH]2)CC1` [Example 180, 1-(3-amino-1H-1,2,4-triazol-5-yl)-N-methyl-N-(3-(trifluoromethyl)phenethyl)piperidin-4-amine], the IC50 is 0.1 to 1 µM.
The same measure for `COc1ccc(OC)c(CCN(C)C2CCN(c3nc(N)n[nH]3)CC2)c1` [Example 182, 1-(3-amino-1H-1,2,4-triazol-5-yl)-N-(2,5-dimethoxyphenethyl)-N-methylpiperidin-4-amine]: 10 to 100 µM; for `CN(CCc1ccc(F)cc1)C1CCN(c2nc(N)n[nH]2)CC1` [Example 183, 1-(3-amino-1H-1,2,4-triazol-5-yl)-N-(4-fluorophenethyl)-N-methylpiperidin-4-amine]: 1 to 10 µM.
For `CN(CCc1c(Cl)cccc1Cl)C1CCN(c2nc(N)n[nH]2)CC1` [Example 184, 1-(3-amino-1H-1,2,4-triazol-5-yl)-N-(2,6-dichlorophenethyl)-N-methylpiperidin-4-amine], the IC50 was in the range of 1 to 10 µM.
As to `Nc1n[nH]c(N2CCC(N(CCc3ccc(Cl)cc3)CC(F)(F)F)CC2)n1` [Example 186, 1-(3-amino-1H-1,2,4-triazol-5-yl)-N-(4-chlorophenethyl)-N-(2,2,2-trifluoroethyl)piperidin-4-amine hydrochloride], the half-inhibitory concentration (IC50) is 10 to 100 µM.
Turning to `Nc1n[nH]c(N2CCC(NS(=O)(=O)Cc3cccc(Br)c3)CC2)n1` [Example 191, N-(1-(3-amino-1H-1,2,4-triazol-5-yl)piperidin-4-yl)-1-(3-bromophenyl)methanesulfonamide], the IC50 was 1 to 10 µM.
The same measure for `Nc1n[nH]c(N2CCC(NS(=O)(=O)Cc3cccc(C(F)(F)F)c3)CC2)n1` [Example 192, N-(1-(3-amino-1H-1,2,4-triazol-5-yl)piperidin-4-yl)-1-(3-(trifluoromethyl)phenyl)methanesulfonamide]: 1 to 10 µM.
For `Nc1n[nH]c(N2CCN(CCOc3ccccc3C(F)(F)F)CC2)n1` [Example 193, 5-(4-(2-(2-(trifluoromethyl)-phenoxy)ethyl)piperazin-1-yl)-1H-1,2,4-triazol-3-amine], the IC50 is over 100 µM.
The figure for `Nc1n[nH]c(N2CCN(CCOc3c(Cl)cccc3Cl)CC2)n1` [Example 194, 5-(4-(2-(2,6-dichlorophenoxy)ethyl)piperazin-1-yl)-1H-1,2,4-triazol-3-amine] is 10 to 100 µM; for `Nc1n[nH]c(N2CCC(C(=O)NCc3cccc4ccccc34)CC2)n1` [Example 195, 1-(3-amino-1H-1,2,4-triazol-5-yl)-N-(naphthalen-1-ylmethyl)piperidine-4-carboxamide] it is over 100 µM; for `Nc1n[nH]c(N2CCC(C(=O)NCc3cccc(F)c3)CC2)n1` [Example 196, 1-(3-amino-1H-1,2,4-triazol-5-yl)-N-(3-fluorobenzyl)piperidine-4-carboxamide] it is over 100 µM.
The same measure for `COc1ccccc1CNC(=O)C1CCN(c2nc(N)n[nH]2)CC1` [Example 197, 1-(3-amino-1H-1,2,4-triazol-5-yl)-N-(2-methoxybenzyl)piperidine-4-carboxamide]: over 100 µM; for `Nc1n[nH]c(N2CCC(C(=O)NCc3ccccc3Cl)CC2)n1` [Example 198, 1-(3-amino-1H-1,2,4-triazol-5-yl)-N-(2-chlorobenzyl)piperidine-4-carboxamide]: over 100 µM; for `Nc1n[nH]c(N2CCC(C(=O)NCc3ccc(F)c(F)c3)CC2)n1` [Example 199, 1-(3-amino-1H-1,2,4-triazol-5-yl)-N-(3,4-difluorobenzyl)piperidine-4-carboxamide]: over 100 µM.
Consider `CC(Cc1ccc(Cl)cc1)N(C)C1CCN(c2nc(N)n[nH]2)CC1` (stereo not drawn) [Example 200, 1-(3-amino-1H-1,2,4-triazol-5-yl)-N-(1-(4-chlorophenyl)propan-2-yl)-N-methylpiperidin-4-amine], for which the IC50 was under 0.1 µM.
On to `COc1ccc(CNC(=O)C2CCN(c3nc(N)n[nH]3)CC2)c(OC)c1` [Example 201, 1-(3-amino-1H-1,2,4-triazol-5-yl)-N-(2,4-dimethoxybenzyl)piperidine-4-carboxamide], for which the IC50 is over 100 µM.
For `Cc1oc(C(F)(F)F)cc1CNC(=O)C1CCN(c2nc(N)n[nH]2)CC1` [Example 202, 1-(3-amino-1H-1,2,4-triazol-5-yl)-N-((2-methyl-5-(trifluoromethyl)furan-3-yl)methyl)piperidine-4-carboxamide], the IC50 is over 100 µM.
Consider `Cc1ccc(C)c(CNC(=O)C2CCN(c3nc(N)n[nH]3)CC2)c1` [Example 204, 1-(3-amino-1H-1,2,4-triazol-5-yl)-N-(2,5-dimethylbenzyl)piperidine-4-carboxamide], for which the half-inhibitory concentration (IC50) is over 100 µM.
Consider `Nc1n[nH]c(N2CCC(C(=O)NCc3ccc(OC(F)(F)F)cc3)CC2)n1` [Example 205, 1-(3-amino-1H-1,2,4-triazol-5-yl)-N-(4-(trifluoromethoxy)benzyl)piperidine-4-carboxamide], for which the IC50 is over 100 µM.
In the case of `COc1ccc(CNC(=O)C2CCN(c3nc(N)n[nH]3)CC2)cc1` [Example 206, 1-(3-amino-1H-1,2,4-triazol-5-yl)-N-(4-methoxybenzyl)piperidine-4-carboxamide], the IC50 is over 100 µM.
The same measure for `Nc1n[nH]c(N2CCC(C(=O)NCC3CCC(F)(F)CC3)CC2)n1` [Example 207, 1-(3-amino-1H-1,2,4-triazol-5-yl)-N-((4,4-difluorocyclohexyl)methyl)piperidine-4-carboxamide]: over 100 µM; for `Nc1n[nH]c(N2CCC(CNC(=O)c3cccc(F)c3)CC2)n1` [Example 208, N-((1-(3-amino-1H-1,2,4-triazol-5-yl)piperidin-4-yl)methyl)-3-fluorobenzamide]: over 100 µM.
As to `Nc1n[nH]c(N2CCC(CNC(=O)c3cc(Br)cc(Br)c3)CC2)n1` [Example 209, N-((1-(3-amino-1H-1,2,4-triazol-5-yl)piperidin-4-yl)methyl)-3,5-dibromobenzamide], the concentration for half-maximal inhibition (IC50) is over 100 µM.
The figure for `Cc1cccc(C(=O)NCC2CCN(c3nc(N)n[nH]3)CC2)c1C` [Example 210, N-((1-(3-amino-1H-1,2,4-triazol-5-yl)piperidin-4-yl)methyl)-2,3-dimethylbenzamide] is over 100 µM; for `COc1ccc(C(=O)NCC2CCN(c3nc(N)n[nH]3)CC2)cc1OC` [Example 211, N-((1-(3-amino-1H-1,2,4-triazol-5-yl)piperidin-4-yl)methyl)-3,4-dimethoxybenzamide] it is over 100 µM; for `Cc1ccccc1C(=O)NCC1CCN(c2nc(N)n[nH]2)CC1` [Example 212, N-((1-(3-amino-1H-1,2,4-triazol-5-yl)piperidin-4-yl)methyl)-2-methylbenzamide] it is over 100 µM.
The same measure for `Nc1n[nH]c(N2CCC(CNC(=O)c3ccc(F)cc3F)CC2)n1` [Example 213, N-((1-(3-amino-1H-1,2,4-triazol-5-yl)piperidin-4-yl)methyl)-2,4-difluorobenzamide]: over 100 µM; for `Nc1n[nH]c(N2CCN(C(=O)CC(N)c3ccccc3F)CC2)n1` (stereo not drawn) [Example 214, 3-amino-1-(4-(3-amino-1H-1,2,4-triazol-5-yl)piperazin-1-yl)-3-(2-fluorophenyl)propan-1-one dihydrochloride]: over 100 µM; for `Nc1n[nH]c(N2CCN(C(=O)CC(N)c3ccc(F)cc3)CC2)n1` (stereo not drawn) [Example 215, 3-amino-1-(4-(3-amino-1H-1,2,4-triazol-5-yl)piperazin-1-yl)-3-(4-fluorophenyl)propan-1-one dihydrochloride]: over 100 µM.
Consider `CCC(CN1CCN(c2nc(N)n[nH]2)CC1)Oc1ccc(Cl)cc1` (stereo not drawn) [Example 216, 5-(4-(2-(4-chlorophenoxy)butyl)piperazin-1-yl)-1H-1,2,4-triazol-3-aminedihydrochloride], for which the IC50 is 1 to 10 µM.
As for `Nc1n[nH]c(N2CCC(NC(=O)Nc3cc(Cl)c(Cl)cc3Cl)CC2)n1` [Example 217, 1-(1-(3-amino-1H-1,2,4-triazol-5-yl)piperidin-4-yl)-3-(2,4,5-trichlorophenyl)urea], the half-inhibitory concentration (IC50) is over 100 µM.
Turning to `Nc1n[nH]c(N2CCC(CNC(=O)Nc3cccc(Cl)c3)CC2)n1` [Example 218], the IC50 is over 100 µM.
`Nc1n[nH]c(N2CCC(CNC(=O)c3ccc(F)c(F)c3)CC2)n1` [Example 220, N-((1-(3-amino-1H-1,2,4-triazol-5-yl)piperidin-4-yl)methyl)-3,4-difluorobenzamide]: the IC50 was over 100 µM.
As for `Nc1n[nH]c(N2CCN(C(=O)[C@@H](O)Cc3ccc(Cl)cc3)CC2)n1` [Example 221, (S)-1-(4-(3-amino-1H-1,2,4-triazol-5-yl)piperazin-1-yl)-3-(4-chlorophenyl)-2-hydroxypropan-1-one], the IC50 is 10 to 100 µM.

The record behind these values is US10214531B2 (Institute for Drug Discovery, LLC, priority 2013, dated 2019).
